Test results as given in the NIST ThermoML archive (doi:10.1021/je700345b).
Values joined by “and” are separate entries in the source; they are usually repeats but may differ in a detail not shown here. Equal values may be shown once.

Experiment: wn = mass fraction of the nth substance listed
Conditions: Liquid, w2 = 0.5

CC(F)(F)F [1,1,1-trifluoroethane] + FC(F)C(F)(F)F
Conditions | viscosity
253.26 K, 2000 kPa | 0.237 mPa·s
253.26 K, 2010 kPa | 0.2374 mPa·s
253.26 K, 2090 kPa | 0.2377 mPa·s
253.26 K, 2170 kPa | 0.2378 mPa·s
253.26 K, 2180 kPa | 0.2371 mPa·s
253.26 K, 2220 kPa | 0.2379 mPa·s
253.26 K, 3370 kPa | 0.2426 mPa·s
253.26 K, 3380 kPa | 0.2427 mPa·s
253.26 K, 3390 kPa | 0.2427 mPa·s
253.26 K, 3410 kPa | 0.2425 mPa·s
253.26 K, 4930 kPa | 0.2479 mPa·s
253.26 K, 4960 kPa | 0.2479 mPa·s
253.26 K, 4970 kPa | 0.248 mPa·s
253.26 K, 4990 kPa | 0.2482 mPa·s
253.26 K, 5020 kPa | 0.2483 mPa·s
253.26 K, 5070 kPa | 0.2487 mPa·s
253.26 K, 7440 kPa | 0.2574 mPa·s
253.26 K, 7500 kPa | 0.2576 mPa·s
253.26 K, 7620 kPa | 0.258 mPa·s
253.26 K, 7720 kPa | 0.2587 mPa·s
263.23 K, 1990 kPa | 0.2076 mPa·s
263.23 K, 2020 kPa | 0.2074 mPa·s
263.23 K, 2070 kPa | 0.2081 mPa·s
263.23 K, 2120 kPa | 0.2077 mPa·s
263.23 K, 3660 kPa | 0.2139 mPa·s
263.23 K, 3670 kPa | 0.2137 mPa·s and 0.2139 mPa·s
263.23 K, 3680 kPa | 0.2138 mPa·s and 0.2137 mPa·s
263.23 K, 3720 kPa | 0.214 mPa·s
263.23 K, 3780 kPa | 0.214 mPa·s
263.23 K, 4690 kPa | 0.2177 mPa·s
263.23 K, 4990 kPa | 0.2192 mPa·s
263.23 K, 5010 kPa | 0.2195 mPa·s
263.23 K, 7000 kPa | 0.2258 mPa·s
263.23 K, 7050 kPa | 0.2257 mPa·s
263.23 K, 7190 kPa | 0.2262 mPa·s
263.23 K, 7220 kPa | 0.227 mPa·s
273.24 K, 2150 kPa | 0.1827 mPa·s
273.24 K, 2160 kPa | 0.1825 mPa·s
273.24 K, 2190 kPa | 0.1826 mPa·s and 0.1823 mPa·s
273.24 K, 2230 kPa | 0.1829 mPa·s
273.24 K, 2260 kPa | 0.1829 mPa·s
273.24 K, 2270 kPa | 0.1829 mPa·s
273.24 K, 3450 kPa | 0.1878 mPa·s and 0.1876 mPa·s
273.24 K, 3470 kPa | 0.1877 mPa·s
273.24 K, 3480 kPa | 0.1873 mPa·s
273.24 K, 3500 kPa | 0.1878 mPa·s
273.24 K, 5030 kPa | 0.1923 mPa·s
273.24 K, 5040 kPa | 0.1925 mPa·s
273.24 K, 5060 kPa | 0.1925 mPa·s
273.24 K, 7360 kPa | 0.2011 mPa·s
273.24 K, 7450 kPa | 0.2008 mPa·s
273.24 K, 7520 kPa | 0.2015 mPa·s
273.24 K, 9710 kPa | 0.2103 mPa·s
273.24 K, 9880 kPa | 0.2106 mPa·s and 0.2104 mPa·s
283.34 K, 2000 kPa | 0.1592 mPa·s
283.34 K, 2060 kPa | 0.1592 mPa·s
283.34 K, 2120 kPa | 0.1591 mPa·s
283.34 K, 2160 kPa | 0.1591 mPa·s
283.34 K, 2220 kPa | 0.1593 mPa·s
283.34 K, 2230 kPa | 0.1592 mPa·s and 0.1596 mPa·s
283.34 K, 2250 kPa | 0.1596 mPa·s
283.34 K, 2260 kPa | 0.1595 mPa·s
283.34 K, 2270 kPa | 0.1597 mPa·s
283.34 K, 3720 kPa | 0.165 mPa·s
283.34 K, 3770 kPa | 0.1651 mPa·s and 0.1654 mPa·s
283.34 K, 3820 kPa | 0.1654 mPa·s
283.34 K, 3860 kPa | 0.1655 mPa·s
283.34 K, 3880 kPa | 0.1657 mPa·s
283.34 K, 4970 kPa | 0.1693 mPa·s
283.34 K, 5000 kPa | 0.1693 mPa·s
283.34 K, 5030 kPa | 0.1696 mPa·s
283.34 K, 5040 kPa | 0.1695 mPa·s
283.34 K, 7600 kPa | 0.178 mPa·s
283.34 K, 7640 kPa | 0.1783 mPa·s
283.34 K, 7680 kPa | 0.1784 mPa·s
283.34 K, 9750 kPa | 0.1851 mPa·s
283.34 K, 9860 kPa | 0.1854 mPa·s
283.34 K, 9900 kPa | 0.1857 mPa·s
283.34 K, 9920 kPa | 0.1857 mPa·s
283.34 K, 9930 kPa | 0.1856 mPa·s
293.33 K, 1920 kPa | 0.1394 mPa·s
293.33 K, 1940 kPa | 0.1392 mPa·s
293.33 K, 1970 kPa | 0.1396 mPa·s
293.33 K, 2020 kPa | 0.1394 mPa·s
293.33 K, 3570 kPa | 0.145 mPa·s
293.33 K, 3690 kPa | 0.1454 mPa·s
293.33 K, 3720 kPa | 0.1455 mPa·s
293.33 K, 3750 kPa | 0.1457 mPa·s
293.33 K, 4910 kPa | 0.1503 mPa·s and 0.15 mPa·s
293.33 K, 5000 kPa | 0.1506 mPa·s
293.33 K, 5030 kPa | 0.1506 mPa·s
293.33 K, 7510 kPa | 0.1585 mPa·s
293.33 K, 7540 kPa | 0.1584 mPa·s
293.33 K, 7560 kPa | 0.1584 mPa·s
293.33 K, 9770 kPa | 0.1667 mPa·s
293.33 K, 9810 kPa | 0.1669 mPa·s
293.33 K, 9850 kPa | 0.1666 mPa·s
293.33 K, 9880 kPa | 0.1669 mPa·s
293.33 K, 9930 kPa | 0.1672 mPa·s
